# Literature values, collected in patent publication US20180187029A1, “COMPOSITION FOR FORMING HIGH RELEASE AND LOW FRICTION FUNCTIONAL COATINGS” (WHITFORD CORPORATION, priority 2015, published 2018).
# Details: for Density / Vapor pressure / Viscosity: 20° C.; for Surface tension: 23° C.
Density [g/Cm3],Vapor pressure [kPa],Viscosity [mPa · s],Surface tension [mN/m],Compound
0.99,0.016,2.3,34.2,"COCCC(=O)N(C)C [3-methoxy-N,N-dimethylpropanamide]"
1.03,0.04,1.8,38.6,CN1CCCC1=O [N-methyl-2-pyrrolidone]
